Measurements as given in doi:10.1101/620765v2 (biorxiv, 2019).
Where two headings read alike, the source gives them in different places.

Tests used:
[1] = biological target: T1, human αVβ3 expressed in HEK-293 cells (HEK-αVβ3) (Homo sapiens, UniProt P05106+P06756); assay: inhibition of HEK-αVβ[…] cell adhesion to immobilized fibrinogen; assay type: cell-based
[2] = biological target: T1, human αVβ3 expressed in HEK-293 cells (HEK-αVβ3); assay: exposure of mAb AP5; assay type: cell-based
[3] = biological target: T1, human αVβ3 expressed in HEK-293 cells (HEK-αVβ3); assay: cell-based; design: species or system HEK-293 expressing human αVβ3
[4] = biological target: purified human αVβ3 (R&D Systems) (Homo sapiens, UniProt P05106+P06756); assay: biochemical
[5] = biological target: T1, human αVβ3 expressed in HEK-293 cells (HEK-αVβ3); assay: inhibition of HEK-αVβ[…] cell adhesion to fibronectin; assay type: cell-based
[6] = biological target: T2, purified αVβ5 (R&D Systems) (Homo sapiens, UniProt P06756+P18084); assay: inhibition of binding of purified αVβ[…] to immobilized vitronectin, plate assay
[7] = biological target: T2, purified αVβ5 (R&D Systems); details: read-out: IC50 (μM) purified αVβ5 binding to vitronectin; antagonist

SMILES: O=C(O)CCCNC(=O)CCCCc1ccc2c(n1)NCCC2 [D, TDI-2668]
- IC50 [1]: 1020 nM
- EC50 [2]: > 10000 nM

SMILES: O=C(CCCCc1ccc2c(n1)NCCC2)NCCC(NC(=O)c1nc2ccccc2s1)C(=O)O (racemic) [F, TDI-3909]
- IC50 [1]: 49 ± 16 nM

SMILES: O=C(CCCCc1ccc2c(n1)NCCC2)NCCC(Nc1nc2ccccc2o1)C(=O)O (racemic) [E, TDI-3761]
- IC50 [3]: 172 ± 66 nM
- IC50 [4]: 0.049 ± 0.05 µM
- IC50 [5]: 79 ± 10 nM
- IC50 [6]: 875 ± 348 nM

SMILES: O=C(CCCCc1ccc2c(n1)NCCC2)NCC[C@H](NC(=O)c1nc2ccccc2s1)C(=O)O [G, TDI-4161]
- IC50 [4]: 0.012 ± 0.005 µM
- IC50 [5]: 42 ± 21 nM
- IC50 [6]: 689 ± 374 nM

SMILES: O=C(CCCCc1ccc2c(n1)NCCC2)NCC[C@@H](Nc1nc2ccccc2o1)C(=O)O [TDI-4158]
- IC50 [1]: 123 ± 55 nM
- EC50 [2]: > 10000 nM

SMILES: O=C(O)CCNC(=O)CCCCc1ccc2c(n1)NCCC2 [C, TDI-1367]
- IC50 [1]: 756 ± 607 nM
- EC50 [2]: > 10000 nM

SMILES: COc1ccc(C(CC(=O)O)N2CCN(CCCc3ccc4c(n3)NCCC4)C2=O)cn1 (racemic) [A, TDI-806]
- IC50 [1]: 3 nM
- EC50 [2]: 12 nM

SMILES: COc1ccc(C(CC(=O)O)N2CCN(CCCc3ccc4c(n3)NCCC4)C2=O)cn1 (racemic) [MK-429 racemate]
- IC50 [7]: 0.035 ± 0.019 µM
- IC50 ([4]; read-out: IC50 (μM) purified αVβ3 binding to penton base, antagonist): 0.011 ± 0.005 µM

SMILES: O=C(CCCCc1ccc2c(n1)NCCC2)NCC[C@H](Nc1nc2ccccc2o1)C(=O)O [TDI-4160]
- IC50 ([1]; 1 mM Mg2+, 2 mM Ca2+, pH 7.4, room temperature): 185 ± 42 nM
- EC50 [2]: > 10000 nM
